Laboratory results from patent US20260224555A1, “NEW PHENYLQUINOLONE COMPOUND HAVING ANTIBACTERIAL AND ANTI-CANCER FUNCTIONS AND PREPARATION THEREOF” (AlphaMol Science Ltd (Shanghai), priority 2022, published 2026).

What was measured:
Assay in all cases: In vitro anticancer activity test (MTT cell proliferation)
Type in all cases: cell-based
Hela [1] = settings: Homo sapiens, average proliferation inhibition rate at the dosage of 40 μM, read-out: Hela Average inhibition rate %
Protocol: (§1) The anticancer activity of the compounds was tested using an in vitro cancer cell tests. The specific test method is as follows:
(§2) 1. Cell recovery and culture method: the cryovial was taken out from the liquid nitrogen container firstly, soaked directly in 37° C. warm water, and shaked from time to time to let it thaw as soon as possible. Then, the cryovial was transferred to a clean bench, and the lid was open. The cell suspension was taken into a centrifuge tube using a rubber-tipped dropper and more than 10 times the culture medium was added, mixed well, and centrifuged at 50 g for 5 minutes. Then, the supernatant was discarded, complete culture medium containing 10% fetal bovine serum was added to resuspend the cells, the cells was counted, the cell density was adjusted, and then inoculated into a culture bottle. The culture bottle was placed in a cell culture incubator at 5% CO2 and 37° C. The complete culture medium was replaced once the next day and the culture was continued.
(§3) 2. Cell passaging method: adherent cells in the logarithmic growth phase were placed in a clean bench, the original culture medium was discarded, and washed three times with 1×PBS. An appropriate amount of 0.25% trypsin digestion solution was added to moisten the cells, and then the trypsin solution was aspirated. The cells were placed in a cell culture incubator at 5% CO2 and 37° C. for digestion for a suitable time, and observed under a microscope. When 90% of the cells become round, the cells were moved immediately to the clean bench and complete culture medium was added to terminate digestion. Then, the cells were dislodged by pipetting up and down with a rubber-tipped dropper to single cells. The cells were counted, and the cell density was adjusted. The cells were inoculated into a suitable culture bottle or dish, added enough complete culture medium, and placed in a cell culture incubator at 5% CO2 and 37° C. for static culture.
(§4) For suspension cells in the logarithmic phase, the original culture medium was directly centrifuged at 50 g for 5 minutes, the supernatant was discarded, and the cells were washed once with PBS and centrifuged. After discarding the supernatant, the complete culture medium was added and the cells were dispersed using a rubber-tipped dropper. The cells are counted, and the cell density was adjusted. The cells were inoculated into appropriate culture bottles or culture dishes, and sufficient complete culture medium was added, and the cells were cultured in a cell culture incubator at 5% CO2 and 37° C.
3. Cell proliferation assay: cells in good state in logarithmic phase were taken and appropriate amount of the cells was inoculated into 96-well plates according to the cell passage treatment method, with each well containing 180 μL complete medium. After the cells growth was recovered and the number of cells in each well is 5000±500, a drug was added for treatment.
After drug treatment during the experimental time, MTT solution with a final concentration of 0.5 mg/mL was added to each well, and placed in a cell culture incubator at 5% CO2 and 37° C. to allow a fully reaction of MTT with cells. After 4 hours, the solution in the 96-well plate was discarded, 100 µL of DMSO was added, and shaked to dissolve the formazan precipitated at the bottom of the plate, and the absorbance value of samples was detected at a wavelength of 570 nm using a microplate reader. Calculation method of cell viability rate:
Table 4 lists some compounds that have inhibitory effects against both of bacteria and cancer cells. In the table, the inhibitory effects against cancer cells are shown: the average proliferation inhibition rate (%) against cancer cells at the dosage of 40 μM.

[2] = tested on: human acute T-lymphoblastic leukemia cell Jurkat
Protocol: as §1, §2, §3, §4

[3] = tested on: human bladder transitional cell carcinoma cell T24; settings: T-24
Protocol: as §1, §2, §3, §4

[4] = tested on: human breast cancer cell MCF-7; settings: MCF7
Protocol: as §1, §2, §3, §4

[5] = tested on: human breast ductal carcinoma cell T-47D; settings: T47D
Protocol: as §1, §2, §3, §4

[6] = tested on: human epidermal carcinoma cell A431; settings: A-431
Protocol: as §1, §2, §3, §4

[7] = tested on: human ovarian adenocarcinoma cell SK-OV-3
Protocol: as §1, §2, §3, §4

Hela [8] = settings: Homo sapiens

IC50 [2]: 1 to 10 µM
IC50 [3]: 1 to 10 µM
IC50 [4]: 1 to 10 µM
IC50 [5]: 1 to 10 µM
IC50 [6]: 1 to 10 µM
IC50 [7]: 1 to 10 µM
IC50 (Hela [8]): 1 to 10 µM
Structure (SMILES): O=C(CCl)Nc1ncc(-c2cc3c(cc2F)c(=O)c(C(=O)O)cn3C2CC2)cc1F [Example 135]
inhibition at 40 µM (Hela [1]): ≥ 50%
